Laboratory results: US20240254089A1, “MODULATORS OF MAS-RELATED G-PROTEIN RECEPTOR X4 AND RELATED PRODUCTS AND METHODS” (ESCIENT PHARMACEUTICALS, INC., priority 2020, published 2024)

What follows are compounds tested against T1, human MRGPR X4 (Homo sapiens, UniProt Q96LA9) (assay: MRGPR X4 antagonist activity, IP-One Gq HTRF assay in stably transfected HEK cells). Details: not given.
T1 construct: expressed in transfected cells
Format: cell-based
Experimental: HEK cells stably transfected to express human MIRGPR X4 were maintained in an incubator at 37° C. with 5% CO2 and grown in DMEM media with 10% fetal bovine serum (FBS) and […] each of sodium pyruvate, Glutamax, penicillin/streptomycin, and Geneticin. HEK cells stably transfected to express mouse MRGPR A1 were maintained in the same incubator and grown in DMEM media with 10% FBS, 1% each of sodium pyruvate, Glutamax, penicillin/streptomycin, Geneticin, and 2.2 mg/mL Hygromycin.
Cells were plated in a 384-well assay plate at 20,000 cells per well in 12 μL of Opti-MEM and kept in an incubator overnight. On the day of the assay, compounds solubilized at 10 mM in DMSO were added as a 10-point curve (10 uM final top concentration with 1:3 serial dilutions) using a Tecan D300E digital dispenser. Agonists were diluted in assay buffer (final concentrations of 5.7 mM Tris-HCl, 43 mM NaCl, 50 mM LiCl, pH=8) and 2 μL of the appropriate agonist are added to each well. Final concentrations of agonists were 10 μM bilirubin, 20 μM deoxycholic acid, or 100 μM conjugated bilirubin (obtained from Lee Biosolutions, catalog #910-12). Final concentrations of DMSO were kept consistent across the plate. Plates were incubated in the dark for 1 h at 37° C. and then for 30 minutes at room temperature. IP-1 standards and HTRF detection reagents were added according to the IP-One—Gq Kit purchased from Cisbio (part number 62IPAPEJ) and incubated in the dark for 1 h at room temperature. The plate was read on a Molecular Devices SpectraMax iD5 plate reader. The HTRF ratio was calculated from the raw data and graphed using GraphPad Prism to calculate an IC50 value for each compound.

T1 sequence (Q96LA9 whole entry): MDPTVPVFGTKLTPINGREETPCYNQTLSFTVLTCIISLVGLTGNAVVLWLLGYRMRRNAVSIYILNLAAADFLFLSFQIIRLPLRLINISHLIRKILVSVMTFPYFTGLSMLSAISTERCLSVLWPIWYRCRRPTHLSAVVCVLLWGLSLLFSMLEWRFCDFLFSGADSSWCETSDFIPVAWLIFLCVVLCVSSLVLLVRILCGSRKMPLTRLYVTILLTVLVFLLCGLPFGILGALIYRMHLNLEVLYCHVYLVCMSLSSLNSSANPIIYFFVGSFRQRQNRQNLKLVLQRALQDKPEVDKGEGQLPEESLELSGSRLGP

SMILES | IC50
Cc1ccc(Cn2cc(C(=O)NCCc3ccc(Cl)c(F)c3)c3ccccc32)cc1 [Compound 196] | 501 to 1000 nM
CN1CCN(CCCn2nc(C(=O)NCCc3nnc4ccccn34)c3ccccc32)CC1 [Compound 444] | > 2500 nM
O=C(NCCc1nnc2ccccn12)c1nn(Cc2cn3cc(Br)ccc3n2)c2ccccc12 [Compound 502] | > 2500 nM
COc1ccccc1OCCn1nc(C(=O)NCCc2nnc3ccccn23)c2ccccc21 [Compound 486] | 501 to 1000 nM
O=C(NCCCn1ccnc1)c1nn(Cc2ccc(Cl)cc2)c2ccccc12 [Compound 345] | > 2500 nM
Cc1ccccc1S(=O)(=O)NC(=O)c1nn(Cc2ccc(OC(F)F)cc2)c2ccccc12 [Compound 258] | 100 to 500 nM
Cc1ccccc1Cn1cc(C(=O)NCCc2cccnc2)c2ccccc21 [Compound 225] | > 2500 nM
O=C(NCCc1cccnc1)c1nn(Cc2ccc(Cl)c(F)c2)c2ccccc12 [Compound 17] | < 100 nM
Cc1ccc(CCNC(=O)c2nn(Cc3ccc(Cl)cc3)c3ccccc23)cn1 [Compound 21] | < 100 nM
O=C(O)c1nn(Cc2ccc(OC(F)(F)F)cc2)c2ccccc12 [Compound 321] | 1000 to 2500 nM
Cn1ncc2cc(Cn3nc(C(=O)NCCc4nnc5ccccn45)c4ccccc43)ccc21 [Compound 452] | 501 to 1000 nM
CCOc1ccc(CCNC(=O)c2nn(Cc3ccc(Cl)cc3)c3ccccc23)cc1 [Compound 365] | > 2500 nM
O=C(NCCNC(=O)c1nn(Cc2ccc(Cl)cc2)c2ccccc12)c1ccccc1 [Compound 400] | 100 to 500 nM
O=C(NCCc1ccc(Cl)c(F)c1)c1cn(CCN2CCC(F)(F)CC2)c2ccccc12 [Compound 223] | 1000 to 2500 nM
O=C(NCCc1cccc(C(F)(F)F)c1)c1cn(Cc2ccc(Cl)cc2)c2ccccc12 [Compound 206] | 1000 to 2500 nM
O=C(NCCc1nnc2ccccn12)c1nn(Cc2ccc(Cl)cc2)c2cc(Br)ccc12 [Compound 550] | 100 to 500 nM
O=C(NCCc1nnc2ccccn12)c1nn(Cc2nccc3ccccc23)c2ccccc12 [Compound 454] | 1000 to 2500 nM
Cc1ccc(Cn2cc(C(=O)NCCc3nc4c(s3)CCC4)c3ccccc32)cc1 [Compound 174] | 100 to 500 nM
O=C(NCCc1nnc2ccccn12)c1nn(Cc2ccc3sccc3c2)c2ccccc12 [Compound 495] | < 100 nM
N#Cc1cccc2c1c(C(=O)NCCc1nnc3ccccn13)nn2Cc1ccc(Cl)cc1 [Compound 546] | 100 to 500 nM
O=C(NCCc1nnc2ccccn12)c1nn(Cc2ccc(C(F)(F)F)cc2Cl)c2ccccc12 [Compound 553] | < 100 nM
C#Cc1ccc(Cn2nc(C(=O)NCCc3nnc4ccccn34)c3ccccc32)cc1 [Compound 445, N-(2-([1,2,4]triazolo[4,3-a]pyridin-3-yl)ethyl)-1-(4-ethynylbenzyl)-1H-indazole-3-carboxamide] | 100 to 500 nM
O=C(NCCN1CCOCC1)c1nn(Cc2ccc(Cl)cc2)c2ccccc12 [Compound 351] | > 2500 nM
Cn1nc(CNC(=O)c2nn(Cc3ccc(Cl)cc3)c3ccccc23)c2cccnc21 [Compound 389] | > 2500 nM
O=C(NCCn1cc(C2CC2)nn1)c1nn(Cc2ccc(Cl)cc2)c2ccccc12 [Compound 138] | < 100 nM
CC(C)c1ccc(Cn2nc(C(=O)O)c3ccccc32)cc1 [Compound 323] | 1000 to 2500 nM

SMILES | IC50
O=C(NCCc1nnc2ccccn12)c1nn(Cn2nnc3ccccc32)c2ccccc12 [Compound 465] | 100 to 500 nM
N#Cc1ccc(Cn2nc(C(=O)NCCc3nnc4ccccn34)c3ccccc32)s1 [Compound 466] | 100 to 500 nM
O=C(NCCc1nnc2n1CCCC2)c1nn(Cc2ccc(Cl)cc2)c2ccccc12 [Compound 25] | < 100 nM
Cc1ccc2nc(CCNC(=O)c3nn(Cc4ccc(Cl)cc4)c4ccccc34)[nH]c2c1 [Compound 560] | 100 to 500 nM
Cc1cccnc1CCNC(=O)c1nn(Cc2ccc(Cl)cc2)c2ccccc12 [Compound 77] | 501 to 1000 nM
Cc1ccc2c(C(=O)NCCc3nnc4ccccn34)nn(Cc3ccc(Cl)cc3)c2c1 [Compound 549] | 100 to 500 nM
N#Cc1ccc(Cn2nc(C(=O)NCCc3nnc4ccccn34)c3ccccc32)cn1 [Compound 464] | 1000 to 2500 nM
O=C(O)c1nn(Cc2ccc(Cl)c(Cl)c2)c2ccccc12 [Compound 318] | 1000 to 2500 nM
O=C(NCCc1nnc2ccccn12)c1nn(Cc2ccc(Cl)cc2)c2ccccc12 [Compound 10] | < 100 nM
COc1cc(CCNC(=O)c2nn(Cc3ccc(Cl)cc3)c3ccccc23)ccc1O [Compound 366] | < 100 nM
O=C(NCCc1nnc2ccccn12)c1nn(CC2CCCCC2)c2ccccc12 [Compound 488] | 501 to 1000 nM
O=C(NCCc1ccc(=O)[nH]c1)c1cn(Cc2ccc(Cl)cc2)c2ccccc12 [Compound 220] | 1000 to 2500 nM
O=C(CNC(=O)c1nn(Cc2ccc(Cl)cc2)c2ccccc12)c1cccnc1 [Compound 132] | 100 to 500 nM
O=C(NCCc1noc2ccccc12)c1nn(Cc2ccc(Cl)cc2)c2ccccc12 [Compound 45] | 100 to 500 nM
O=C(NS(=O)(=O)c1ccc(Cl)cc1Cl)c1nn(Cc2cccc(F)c2)c2ccccc12 [Compound 261] | 501 to 1000 nM
Cn1cc(C(=O)Cn2nc(C(=O)NCCc3nnc4ccccn34)c3ccccc32)cn1 [Compound 467] | 100 to 500 nM
O=C(NCc1nc2ccccc2o1)c1nn(Cc2ccc(Cl)cc2)c2ccccc12 [Compound 393] | > 2500 nM
O=C(NCCc1cccc(F)c1)c1cn(Cc2ccc(Cl)cc2)c2ccccc12 [Compound 162] | 100 to 500 nM
O=C(NCc1ccnnc1)c1nn(Cc2ccc(Cl)cc2)c2ccccc12 [Compound 405] | > 2500 nM
N#Cc1ccc2c(c1)c(C(=O)NCCc1nnc3ccccn13)nn2Cc1ccc(Cl)cc1 [Compound 551] | < 100 nM
O=C(NCc1ncc(-c2ccccc2)[nH]1)c1nn(Cc2ccc(Cl)cc2)c2ccccc12 [Compound 429] | 501 to 1000 nM
O=C(NCCc1nc2ccccc2s1)c1nn(Cc2ccc(Cl)cc2)c2ccccc12 [Compound 46] | 100 to 500 nM
O=C(NCCc1nnc2ccccn12)c1nn(Cc2ncc3cc(Cl)ccc3n2)c2ccccc12 [Compound 436] | 100 to 500 nM
COc1cc(Cl)ccc1Cn1nc(C(=O)NCCc2nc3c(s2)CCCC3)c2ccccc21 [Compound 123] | > 2500 nM
O=C(NCc1ccc(O)cc1)c1nn(Cc2ccc(Cl)cc2)c2ccccc12 [Compound 376] | 501 to 1000 nM
Cc1cccc(Cn2cc(C(=O)NCCc3ccc(Cl)c(F)c3)c3ccccc32)c1 [Compound 222] | 1000 to 2500 nM

Same assay, conditions: versus 20 μM deoxycholic acid agonist; HEK cells expressing human MRGPR X4; read-out: MRGPRX4 Antagonist Activity

SMILES | IC50
COc1cccc(S(=O)(=O)NC(=O)c2nn(Cc3ccc(OC(F)F)cc3)c3ccccc23)c1 [Compound 285] | 1000 to 2500 nM
COc1ccccc1NC(=O)CS(=O)(=O)c1cn(Cc2ccc(Cl)cc2)c2ccccc12 [Compound 246] | 1000 to 2500 nM
COc1ccc(S(=O)(=O)NC(=O)c2nn(Cc3ccc(OC(F)F)cc3)c3ccccc23)cc1C [Compound 275] | 1000 to 2500 nM
CC(C)NC(=O)CS(=O)(=O)c1cn(Cc2ccc(Cl)cc2)c2ccccc12 [Compound 248] | 1000 to 2500 nM
O=C(NS(=O)(=O)c1cccnc1)c1nn(Cc2ccc(Cl)cc2)c2ccccc12 [Compound 304] | > 2500 nM
CS(=O)(=O)c1ccccc1Cn1nc(C(=O)NCCc2nnc3ccccn23)c2ccccc21 [Compound 435] | > 2500 nM
O=C(CS(=O)(=O)c1cn(Cc2ccc(Cl)cc2)c2ccccc12)Nc1cccc(Cl)c1 [Compound 253] | 1000 to 2500 nM
O=C(NS(=O)(=O)c1ccccc1OC(F)(F)F)c1nn(Cc2ccc(OC(F)F)cc2)c2ccccc12 [Compound 286] | 1000 to 2500 nM
O=C(Cn1nc(C(=O)NCCc2nnc3ccccn23)c2ccccc21)c1cc2ccccc2o1 [Compound 503] | 501 to 1000 nM
Cc1cccc(S(=O)(=O)NC(=O)c2nn(Cc3ccc(F)cc3)c3ccccc23)c1 [Compound 292] | 1000 to 2500 nM
Cc1ccc(Cn2nc(C(=O)NS(=O)(=O)c3cccc(C)c3)c3ccccc32)cc1 [Compound 297] | > 2500 nM
COc1ccc(C(=O)Cn2nc(C(=O)NCCc3nnc4ccccn34)c3ccccc32)cc1 [Compound 484] | 1000 to 2500 nM
O=C(Cn1nc(C(=O)NCCc2nnc3ccccn23)c2ccccc21)c1ccc(Cl)c(Cl)c1 [Compound 482] | < 100 nM
O=C(NS(=O)(=O)c1ccc(C(F)(F)F)cc1)c1nn(Cc2ccc(OC(F)F)cc2)c2ccccc12 [Compound 276] | 1000 to 2500 nM
O=C(CCn1nc(C(=O)NCCc2nnc3ccccn23)c2ccccc21)c1ccc(F)cc1 [Compound 443] | > 2500 nM
Cc1cc(S(=O)(=O)NC(=O)c2nn(Cc3ccc(OC(F)F)cc3)c3ccccc23)ccc1Cl [Compound 303] | > 2500 nM
O=C(NS(=O)(=O)Cc1cccnc1)c1nn(Cc2ccc(Cl)cc2)c2ccccc12 [Compound 310] | > 2500 nM
O=C(CS(=O)(=O)c1cn(Cc2ccc(Cl)cc2)c2ccccc12)Nc1ccccc1 [Compound 242] | 501 to 1000 nM
